Data as given in patent US7897620B2, “Methods of using anti-inflammatory compounds” (Cambridge Enterprise Limited, priority 2007, dated 2011).
Read-outs that look alike come from different tables or passages of the source.

How the values were obtained:
[1] = system: MCP-1 induced THP-1 cell migration; test: ChemoTx transwell migration assay, MCP-1 induced migration of THP-1 cells; format: cell-based; conditions: Homo sapiens
Procedure: (§1) In principle, this assay consists of two chambers separated by a porous membrane. The chemoattractant is placed in the lower compartment and the cells are placed in the upper compartment. After incubation for a period at 37° C. the cells move towards the chemoattractant, and the number of cells in the lower compartment is proportional to the chemoattractant activity (relative to a series of controls).
(§2) The THP-1 cell line (European Cell Culture Collection) were used as the leukocyte cell population.
(§3) First, the cell suspension to be placed in the upper compartment is prepared. The THP-1 cells are pelleted by centrifugation (770×g; 4 mins) and washed with Geys Balanced Salt Solution with 1 mg/ml BSA (GBSS+BSA). This wash is then repeated, and the cells repelleted before being resuspended in a small volume of GBSS+BSA for counting, for example using a standard haemocytometer.
(§4) The volume of GBSS+BSA is then adjusted depending on the number of cells present so that the cells are at final density of 4.45×10^6 cells per ml of GBSS+BSA. This ensures that there are […] THP-1 cells in each 25 μl of the solution that will be placed in the upper chamber of the plate.
To test a single compound for its ability to inhibit chemokine induced migration, it is necessary to prepare two lots of cells. The suspension of THP-1 cells at 4.45×10^6 cells/ml is divided into two pots. To one pot the inhibitor under test is added at an appropriate final concentration, in an appropriate vehicle (for example at 1 μM in not more than 1% DMSO). To the second pot an equal volume of GBSS+BSA plus vehicle as appropriate (e.g. not more than 1% DMSO) is added to act as a control.
Next, the chemoattractant solution to be placed in the lower compartment is prepared. For example, MCP-1 is diluted in GBSS+BSA to give a final concentration of 25 ng/ml. This is divided into two pots, as for the cell suspension. To one pot, the test compound is added to the same final concentration as was added to the cell suspension, while to the other pot an equal volume of GBSS+BSA plus vehicle as appropriate (e,g. not more than 1% DMSO) is added. Alternatively, other chemokines may be used (SDF-1α at 7.5 ng/ml; RANTES at 50 ng/ml; IL-8 at 10 ng/ml using neutrophils as the target cell population). In each case it is important to determine (in a separate experiment) the concentration of each chemokine which causes maximal stimulation of migration of the chosen target leukocyte population. This maximal concentration must then be used in experiments to test the inhibitory activity of the compounds of the invention.
Once the chemoattractant solutions for the lower wells and cell solutions for the upper chambers have been prepared, the migration chamber should be assembled. Place 29 μl of the appropriate chemoattractant solution into the lower well of the chamber. Assays should be performed with at least triplicate determinations of each condition. Once all the lower chambers have been filled, apply the porous membrane to the chamber in accordance with the manufacturer's instructions. Finally, apply 25 μl of the appropriate cell solution to each upper chamber. A plastic lid is placed over the entire apparatus to prevent evaporation.
The assembled chamber is incubated at 37° C., 5% CO2, for 2 hours. A suspension of cells in GBSS+BSA is also incubated under identical conditions in a tube: these cells will be used to construct a standard curve for determining the number of cells that have migrated to the lower chamber under each condition.
At the end of the incubation, the liquid cell suspension is gently removed from the upper chamber, and 20 μl of ice-cold 20 mM EDTA in PBS is added to the upper chamber, and the apparatus is incubated at 4° C. for 15 mins. This procedure causes any cells adhering to the underside of the membrane to fall into the lower chamber.
After this incubation the filter is carefully flushed with GBSS+BSA to wash off the EDTA, and then the filter is removed. […]

[2] = Pharmacokinetics following a single dose in dog (crossover iv / per os); format: in vivo; conditions: plasma; for Vd: read-out: Vss
Procedure: In a separate experiment, (I′) was compared with the second best compound (V) for pharmacokinetic parameters in a different (non-rodent) species, the dog. Single doses (1 mg/kg in 5% DMSO intravenously or 3 mg/kg in 1% CMC per os) were administered to a single dog for each compound in a simple crossover design with 1 week washout between the two routes of administration.

[3] = system: SDF-1α induced THP-1 cell migration; test: ChemoTx transwell migration assay, SDF-1α induced migration of THP-1 cells; format: cell-based; conditions: Homo sapiens, maximal dose of chemoattractant, read-out: ED50 SDF-1α
Procedure: as §1, §2, §3, §4
(§5) To test a single compound for its ability to inhibit chemokine induced migration, it is necessary to prepare two lots of cells. The suspension of THP-1 cells at 4.45×10^6 cells/ml is divided into two pots. […]

[4] = system: RANTES induced THP-1 cell migration; test: ChemoTx transwell migration assay, RANTES induced migration of THP-1 cells; format: cell-based; conditions: Homo sapiens, maximal dose of chemoattractant, read-out: ED50 RANTES
Procedure: as §1, §2, §3, §4, §5

[5] = Water solubility (observation); format: physicochemical
[6] = THP-1 cells, maximal dose of chemoattractant, read-out: ED50 MCP-1
[7] = THP-1 migration inhibition, Table 5, read-out: Functional ED50 versus MCP-1

SMILES | EC50 [1, 6] [nM] | EC50 [1, 7] [nM] | clearance ([2]; Intravenous PK (1 mg/kg)) [mL/min/kg] | half-life ([2]; Intravenous PK (1 mg/kg)) [min] | Vd ([2]; Intravenous PK (1 mg/kg)) [L/kg] | AUC ([2]; Oral PK (3 mg/kg)) [ng·h/mL] | Tmax ([2]; Oral PK (3 mg/kg)) [h] | bioavailability ([2]; Oral PK (3 mg/kg)) [%] | half-life ([2]; Oral PK (3 mg/kg)) [min] | EC50 [3] [nM] | EC50 [4] [nM] | water solubility [5]
CC(C)(C)S(=O)(=O)N[C@H]1CCCCNC1=O [(IV), 3-(1′,1′-dimethylethylsulfonylamino)-caprolactam] | 0.8 | 0.8 | – | – | – | – | – | – | – | – | – | –
O=C1NCCCC[C@@H]1NC(=O)C12CC3CC(CC(O)(C3)C1)C2 [(V), 3-(3′-hydroxyadamantyl-1-carbonylamino)-caprolactam] | – | – | 7.4 | 66 | 0.6 | 4000 | 1 | 59 | 67 | 0.2 | – | –
O=C1NCCCC[C@@H]1NC(=O)C12CC3CC(CC(C3)C1)C2 [(II), 3-(adamantane-1-carbonylamino)-caprolactam] | 0.08 | 0.08 | – | – | – | – | – | – | – | 0.1 | 0.1 | –
CC(C)(C)C(=O)N[C@H]1CCCNC1=O [Compound (I′), 3-(2′,2′-dimethylpropanoylamino)-tetrahydropyridin-2-one] | – | – | 1.9 | 236 | 0.6 | 20200 | 1 | 75 | 217 | – | – | extremely water soluble
